Assay [1] has as its system H295R cells. The conditions noted are these: H295R cells (parental or unmodified); cited from earlier work.
Another assay deals with T1, aromatase (CYP19) (Homo sapiens, UniProt P11511).
T1 sequence (P11511 1-503): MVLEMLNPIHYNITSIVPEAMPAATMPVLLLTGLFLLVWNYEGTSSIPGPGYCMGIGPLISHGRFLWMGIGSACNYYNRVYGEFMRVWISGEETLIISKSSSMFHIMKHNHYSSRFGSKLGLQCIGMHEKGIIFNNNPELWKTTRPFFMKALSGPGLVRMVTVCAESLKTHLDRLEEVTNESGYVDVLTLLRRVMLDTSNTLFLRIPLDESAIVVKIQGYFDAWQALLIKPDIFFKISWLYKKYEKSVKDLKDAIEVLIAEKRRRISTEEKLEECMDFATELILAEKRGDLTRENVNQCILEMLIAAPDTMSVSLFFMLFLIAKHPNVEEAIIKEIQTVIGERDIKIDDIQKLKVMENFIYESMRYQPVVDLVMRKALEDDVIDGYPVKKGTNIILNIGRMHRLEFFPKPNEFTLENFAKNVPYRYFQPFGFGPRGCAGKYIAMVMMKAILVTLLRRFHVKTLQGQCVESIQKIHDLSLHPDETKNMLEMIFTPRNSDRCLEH
As to conditions: cited from earlier work.

In the next assay the target is T2, aromatase (Homo sapiens, UniProt P11511).
T2 construct: endogenous in cells; host or cells: KGN human ovarian tumor cells
T2 sequence (P11511 1-503): T1 sequence (P11511 1-503)
The conditions noted are these: human ovarian tumor cells (KGN); cited from earlier work.

For assay [2] the following is noted: in vivo; cited from earlier work.
The subject of the next assay is ER. The conditions noted are these: cited from earlier work.
The conditions of assay [3]: cited from earlier work.
The test system of a further assay is estrogen receptor. The conditions noted are these: cited from earlier work.
The subject of the next assay is esterase. The conditions noted are these: in vitro; cited from earlier work.
For a further assay, the system named is H295R/CYP21A2-KD cells. The experiment in a line: Chemical exposure, steroid production in H295R/CYP21A2-KD cells. The class given is cell-based, human. Here is the method: (§1) For instrumental detection of steroids, culture medium samples were extracted by ethyl acetate/hexane (v/v, 50/50) followed by LC-MS/MS analysis. […] C-d4 was provided by Cambridge (Andover, Mass., USA), other labelled standards were provided by C/D/N Isotope (Pointe-Claire, Quebec, Canada). Test chemicals (e.g. test substances) were obtained from Sigma. […] For all other hormones, chromatography was performed using a nano-pure water and methanol. Sample extract was separated by a 100 mm×2.1 mm Thermo Scientific Betasil C18 column (5 μm pore size) and then analyzed by a triple quadrapole tandem mass spectrometer (Waters, USA). All data were acquired and processed with Analyst Software, Ver. 1.4.1 (ABI-Sciex).
(§2) Cells were exposed to model chemicals in 24-well cell culture plates (COSTAR, Bucks, UK). One ml of cell suspension was added to each well and cells cultured for 24 to 48 h. Cells were exposed to chemicals dissolved in dimethyl sulfoxide (DMSO; Sigma-Aldrich, St. Louis, Mo.). Forskolin (FOR) was obtained from Sigma Chemical Co. (St. Louis, Mo., USA) and Prochloraz (PRO) was purchased from Aldrich (St. Louis, Mo., USA). The culture medium was collected from each well after 48 h and stored at −80° C. until further measurement.

In assay [4] the test system is H295R cells. The experiment in a line: Chemical exposure, steroid production in unaltered H295R cells. The conditions noted are these: 48 h. It is filed as cell-based, human. Here is the method: as §1, §2
Assay [5] concerns female rat primary granulosa cells. The conditions noted are these: cited from earlier work.

Regarding `CCC1(c2ccc(N)cc2)CCC(=O)NC1=O` (stereo not drawn) [Aminoglutethimide], in the assay with H295R cells [1], the “Effect type: estradiol (E2) production” value was “Medium to weak inhibitor of T and E2”; the “Effect type: testosterone (T) production” value is “Medium to weak inhibitor of T and E2”.

As for `CCNc1nc(Cl)nc(NC(C)C)n1` [Atrazine], in the assay with H295R cells [1], the “Effect type: estradiol (E2) production” value is reported as “Weak inducer of E2 production”. Further, the “Effect on aromatase (CYP19) activity in vitro” value (from here on “Effect on aromatase … in vitro”) on aromatase (CYP19) is on record as “Aromatase inducer in vitro”.

`CCCCNC(=O)n1c(NC(=O)OC)nc2ccccc21` [Benomyl]: in the assay with H295R cells [1], the “Effect type: estradiol (E2) production” value is “inducer or negative for E2 production” and the “Effect type: testosterone (T) production” value is listed as “Weak inhibitor of T production; Weak”. Besides, on aromatase (CYP19), the “Effect on aromatase … in vitro” value is “Aromatase inducer in vitro”. For the same compound, the “Effect on aromatase activity” value at aromatase is “Has been shown to induce aromatase”.

On to `CC(C)(c1ccc(O)cc1)c1ccc(O)cc1` [Bisphenol A], for which, in the assay on H295R cells [1], the “Effect type: estradiol (E2) production” value was “inducer” and the “Effect type: testosterone (T) production” value was “inhibitor”. The Uterrotrophic assay result in [2] is “estradiol. Tested positive for ER”. Besides, the “ER binding in vitro” value in the assay with ER is on record as “estradiol. Tested positive for ER”. For the same compound, the “Effect on progesterone (synthesis) in vitro” value in assay [3] is recorded as “Some evidence that alters”.

`C#C[C@]1(O)CC[C@H]2[C@@H]3CCC4=Cc5oncc5C[C@]4(C)[C@H]3CC[C@@]21C` [Danazol]: in the assay with H295R cells [1], the “Effect type: estradiol (E2) production” value is reported as “medium to strong inhibitor of estradiol” and the “Effect type: testosterone (T) production” value is reported as “Negative for effects on testosterone;”.

In the case of `CCCCC(CC)COC(=O)c1ccccc1C(=O)OCC(CC)CCCC` (stereo not drawn) [Di (2-ethylhexyl) phthalate (DEHP), Di (2-ethylhexyl) phthalate], in the assay on H295R cells [1], the “Effect type: estradiol (E2) production” value is reported as “inducer of estradiol in H295R cells”.

Take `CNC(=O)CSP(=S)(OC)OC` [Dimethoate]: in the assay on H295R cells [1], the “Effect type: estradiol (E2) production” value was “increases testosterone and estradiol”; the “Effect type: testosterone (T) production” value is “increases testosterone and estradiol”. Also, the “Effect on progesterone (synthesis) in vitro” value in [3] is reported as “Has been shown to decrease”. Also, the “Effect on aromatase … in vitro” value at aromatase (CYP19) was “not affect aromatase activity in vitro;”.

In the case of `OC(c1ccc(Cl)cc1)(c1cncnc1)c1ccccc1Cl` (stereo not drawn) [Fenarimol], the “Effect type: estradiol (E2) production” value in the assay on H295R cells [1] is recorded as “not as unequivocal; weak inhibitor of”.

As to `CC(C)(C)NC(=O)[C@H]1CC[C@H]2[C@@H]3CC[C@H]4NC(=O)C=C[C@]4(C)[C@H]3CC[C@]12C` [Finasteride], in the assay with H295R cells [1], the “Effect type: estradiol (E2) production” value was “negative for effects on estradiol” and the “Effect type: testosterone (T) production” value is “Weak inhibitor of testosterone;”.

Consider `O=c1c(-c2ccc(O)cc2)coc2cc(O)cc(O)c12` [Genistein], for which, in the assay with H295R cells [1], the “Effect type: estradiol (E2) production” value was “Medium inducer of E2 and weak”; the “Effect type: testosterone (T) production” value is “inhibitor of T production. Weak”. In addition, in the assay on estrogen receptor, the Estrogen receptor agonism result is listed as “estrogen receptor agonist”.

`CC(=O)N1CCN(c2ccc(OCC3COC(Cn4ccnc4)(c4ccc(Cl)cc4Cl)O3)cc2)CC1` (stereo not drawn) [Ketoconazole]: in the assay with H295R cells [1], the “Effect type: estradiol (E2) production” value is reported as “Medium to weak inhibitor of E2”, the “Effect type: progesterone production” value is “production; Induces progesterone” and the “Effect type: testosterone (T) production” value is reported as “Strong inhibitor of T production;”.

In the case of `N#Cc1ccc(C(c2ccc(C#N)cc2)n2cncn2)cc1` [Letrozole], in the assay with H295R cells [1], the “Effect type: estradiol (E2) production” value was “Strong inhibitor of E2 production” and the “Effect type: testosterone (T) production” value is “Weak inhibitor of T production”.

For the compound `CCSC(=O)N1CCCCCC1` [Molinate], in the assay with H295R cells [1], the “Effect type: testosterone (T) production” value is on record as “negative/weak inhibitor of T”. Moreover, the “Inhibition of esterase activity” value in the assay with esterase was “vitro, molinate is a poor”.

As for `CCCCOC(=O)c1ccc(O)cc1` [Paraben (Butyl paraben), Butyl paraben], in the assay with H295R cells [1], the “Effect type: estradiol (E2) production” value is “Weak inducer of E2, and weak”; the “Effect type: testosterone (T) production” value is listed as “inhibitor of T production”.

On to `CCCN(CCOc1c(Cl)cc(Cl)cc1Cl)C(=O)n1ccnc1` [Prochloraz], for which, in the assay on H295R cells [1], the “Effect type: estradiol (E2) production” value is “Strong inhibitor of T and E2”; the “Effect type: testosterone (T) production” value is “Strong inhibitor of T and E2”. Besides, the “Effect on progesterone production” value with H295R/CYP21A2-KD cells is reported as “increased”. For the same compound, in the assay with H295R/CYP21A2-KD cells (H295R/CYP21A2-KD, 48 h), the “Effect on production of E1” value is given as “inhibited”, the “Effect on production of E2” value is “inhibited” and the “Effect on production of T” value is reported as “inhibited”. In addition, in the assay on H295R cells [4], the “Effect on production of E1” value is “inhibited”, the “Effect on production of E2” value was “inhibited” and the “Effect on production of T” value was “inhibited”. The “Effect on progesterone production” value with H295R cells [4] (0.1 μM to 10 μM, dose-dependent) is “increased”.

For `COc1nc(NC(C)C)nc(NC(C)C)n1` [Prometon], in the assay on H295R cells [1], the “Effect type: estradiol (E2) production” value was “Weak inducer of E2 production;” and the “Effect type: testosterone (T) production” value was “Negative for T”.

For `CC#C[C@]1(O)CC[C@H]2[C@@H]3CCC4=CC(=O)CCC4=C3[C@@H](c3ccc(N(C)C)cc3)C[C@@]21C` [RU-486/mifepristone, mifepristone], in the assay on H295R cells [1], the “Effect type: estradiol (E2) production” value was “medium to strong inducer of estradiol” and the “Effect type: testosterone (T) production” value is given as “Negative for effects on testosterone;”. Also, the “ER result (mode of action)” value with estrogen receptor is reported as “Negative for ER very”.

On to `C[C@]12CC[C@H]3[C@@H](CC[C@@]45O[C@@H]4C(O)=C(C#N)C[C@]35C)[C@@H]1CC[C@@H]2O` [Trilostane], for which, in the assay with H295R cells [1], the “Effect type: estradiol (E2) production” value was “Strong inducer of T and E2”; the “Effect type: testosterone (T) production” value was “Strong inducer of T and E2”.

With `C=CC1(C)OC(=O)N(c2cc(Cl)cc(Cl)c2)C1=O` (stereo not drawn) [Vinclozolin], in the assay on H295R cells [1], the “Effect type: estradiol (E2) production” value was “Weak inducer of and moderate”; the “Effect type: testosterone (T) production” value is “inhibitor of T production”.

For the compound `CCCCC(CC)COC(=O)c1ccccc1C(=O)O` (stereo not drawn) [monoethylhexyl phthalate (MEHP), monoethylhexyl phthalate], in [5], the “Effect on estradiol production” value is “(MEHP) has been shown to suppress”.

As to Nonoxynol-9, in the assay on H295R cells [1], the “Effect type: estradiol (E2) production” value is given as “Negative for effects on testosterone” and the “Effect type: testosterone (T) production” value is reported as “Negative for effects on testosterone”.
